# Literature values, collected in PubChem BioAssay AID1259409 (Chemical Carcinogenesis Research Information System (CCRIS), 2018).
# Tested on: rodent chemically induced tumor inhibition, incidence and multiplicity
# Assay: CCRIS tumor inhibitor studies
# Settings: Route [Inhibitor]: ORAL, Promoter: NONE USED
smiles,measurement,setting,value
Cc1c(-c2cnccn2)ssc1=S,"tumour outcome (control, treated, inhibition, significance)","Carcinogen: AZOXYMETHANE, 25843-45-2, Dose [Inhibitor]: 0, 200 PPM IN DIET FOR 56 WK BEGINNING 2 WK PRIOR TO CARCINOGEN TREATMENT (STUDY DURATION: 56 WK), Species: RAT, Strain/Sex: F344/MALE, Target Tissue: Type of Lesion: SMALL INTESTINE (DISTAL): TUMOR, Dose [Carcinogen]: 15 MG/KG 1/WK FOR 2 WK","12%, 5%, 58%, not significant"
same,"tumour outcome (control, treated, inhibition, significance)","Carcinogen: AZOXYMETHANE, 25843-45-2, Dose [Inhibitor]: 0, 200 PPM IN DIET FOR 56 WK BEGINNING 2 WK PRIOR TO CARCINOGEN TREATMENT (STUDY DURATION: 56 WK), Species: RAT, Strain/Sex: F344/MALE, Target Tissue: Type of Lesion: SMALL INTESTINE (PROXIMAL): TUMOR, Dose [Carcinogen]: 15 MG/KG 1/WK FOR 2 WK","33%, 14%, 58%, not significant"
same,"tumour outcome (control, treated, inhibition, significance)","Carcinogen: AZOXYMETHANE, 25843-45-2, Dose [Inhibitor]: 0, 400 PPM IN DIET 7 WK PRIOR TO CARCINOGEN TREATMENT AND CONTINUING FOR STUDY DURATION (STUDY DURATION: 59 WK), Species: RAT, Strain/Sex: F344/MALE, Target Tissue: Type of Lesion: COLON: ADENOCARCINOMA, Dose [Carcinogen]: 15 MG/KG 1/WK FOR 2 WK","72%, 50%, 31%, p<0.05"
same,"tumour outcome (control, treated, inhibition, significance)","Carcinogen: AZOXYMETHANE, 25843-45-2, Dose [Inhibitor]: 0, 400 PPM IN DIET 7 WK PRIOR TO CARCINOGEN TREATMENT AND CONTINUING FOR STUDY DURATION (STUDY DURATION: 59 WK), Species: RAT, Strain/Sex: F344/MALE, Target Tissue: Type of Lesion: COLON: ADENOMA, Dose [Carcinogen]: 15 MG/KG 1/WK FOR 2 WK","14%, 8%, 43%, not calculated"
same,"tumour outcome (control, treated, inhibition, significance)","Carcinogen: AZOXYMETHANE, 25843-45-2, Dose [Inhibitor]: 0, 400 PPM IN DIET 7 WK PRIOR TO CARCINOGEN TREATMENT AND CONTINUING FOR STUDY DURATION (STUDY DURATION: 59 WK), Species: RAT, Strain/Sex: F344/MALE, Target Tissue: Type of Lesion: SMALL INTESTINE: ADENOCARCINOMA, Dose [Carcinogen]: 15 MG/KG 1/WK FOR 2 WK","50%, 8%, 84%, p<0.001"
same,"tumour outcome (control, treated, inhibition, significance)","Carcinogen: AZOXYMETHANE, 25843-45-2, Dose [Inhibitor]: 0, 400 PPM IN DIET 7 WK PRIOR TO CARCINOGEN TREATMENT AND CONTINUING FOR STUDY DURATION (STUDY DURATION: 59 WK), Species: RAT, Strain/Sex: F344/MALE, Target Tissue: Type of Lesion: SMALL INTESTINE: ADENOMA, Dose [Carcinogen]: 15 MG/KG 1/WK FOR 2 WK","3%, 0%, 100%, not calculated"
same,"tumour outcome (control, treated, inhibition, significance)","Carcinogen: AZOXYMETHANE, 25843-45-2, Dose [Inhibitor]: 0, 400 PPM IN DIET FOR 56 WK BEGINNING 2 WK PRIOR TO CARCINOGEN TREATMENT (STUDY DURATION: 56 WK), Species: RAT, Strain/Sex: F344/MALE, Target Tissue: Type of Lesion: COLON (DISTAL): TUMOR, Dose [Carcinogen]: 15 MG/KG 1/WK FOR 2 WK","47%, 36%, 23%, not significant"
same,"tumour outcome (control, treated, inhibition, significance)","Carcinogen: AZOXYMETHANE, 25843-45-2, Dose [Inhibitor]: 0, 400 PPM IN DIET FOR 56 WK BEGINNING 2 WK PRIOR TO CARCINOGEN TREATMENT (STUDY DURATION: 56 WK), Species: RAT, Strain/Sex: F344/MALE, Target Tissue: Type of Lesion: COLON (PROXIMAL): TUMOR, Dose [Carcinogen]: 15 MG/KG 1/WK FOR 2 WK","39%, 36%, 8%, not significant"
same,"tumour outcome (control, treated, inhibition, significance)","Carcinogen: AZOXYMETHANE, 25843-45-2, Dose [Inhibitor]: 0, 400 PPM IN DIET FOR 56 WK BEGINNING 2 WK PRIOR TO CARCINOGEN TREATMENT (STUDY DURATION: 56 WK), Species: RAT, Strain/Sex: F344/MALE, Target Tissue: Type of Lesion: SMALL INTESTINE (PROXIMAL): TUMOR, Dose [Carcinogen]: 15 MG/KG 1/WK FOR 2 WK","33%, 5%, 85%, p<0.05"
same,"tumour outcome (control, treated, inhibition, significance)","Carcinogen: AZOXYMETHANE, 25843-45-2, Dose [Inhibitor]: 0, 400 PPM IN DIET FOR 56 WK BEGINNING 2 WK PRIOR TO CARCINOGEN TREATMENT (STUDY DURATION: 56 WK), Species: RAT, Strain/Sex: F344/MALE, Target Tissue: Type of Lesion: SMALL INTESTINE(DISTAL): TUMOR, Dose [Carcinogen]: 15 MG/KG 1/WK FOR 2 WK","12%, 5%, 58%, not significant"
same,"tumour outcome (control, treated, inhibition, significance)","Carcinogen: AZOXYMETHANE, 25843-45-2, Dose [Inhibitor]: O, 200 PPM IN DIET 7 WK PRIOR TO CARCINOGEN TREATMENT AND CONTINUING FOR STUDY DURATION (STUDY DURATION: 59 WK), Species: RAT, Strain/Sex: F344/MALE, Target Tissue: Type of Lesion: SMALL INTESTINE, ADENOMA, Dose [Carcinogen]: 15 MG/KG 1/WK FOR 2 WK","3%, 0%, 100%, not calculated"
same,"tumour outcome (control, treated, inhibition, significance)","Carcinogen: BENZO[A]PYRENE, 50-32-8, Dose [Inhibitor]: 0, 180 PPM IN DIET FOR 36 WK BEGINNING 48 HR PRIOR TO CARCINOGEN DOSE (STUDY DURATION: 36 WK), Species: MOUSE, Strain/Sex: STRAIN-A/FEMALE, Target Tissue: Type of Lesion: LUNG: TUMOR, Dose [Carcinogen]: 100 MG/KG IN 0.1 ML OF TRICAPRYLIN ONCE","100%, 100%, 0%, not significant"
same,"tumour outcome (control, treated, inhibition, significance)","Carcinogen: BENZO[A]PYRENE, 50-32-8, Dose [Inhibitor]: 0, 360 PPM IN DIET FOR 36 WK BEGINNING 48 HR PRIOR TO CARCINOGEN DOSE (STUDY DURATION: 36 WK), Species: MOUSE, Strain/Sex: STRAIN-A/FEMALE, Target Tissue: Type of Lesion: LUNG: TUMOR, Dose [Carcinogen]: 100 MG/KG IN 0.1 ML OF TRICAPRYLIN ONCE","100%, 100%, 0%, not significant"
same,"tumour outcome (control, treated, inhibition, significance)","Carcinogen: DIETHYLNITROSAMINE, 55-18-5, Dose [Inhibitor]: 0, 300 MG/KG DIET FOR DURATION OF STUDY BEGINNING 1 WK PRIOR TO CARCINOGEN TREATMENT (STUDY DURATION: 25 WK), Species: HAMSTER, Strain/Sex: SYRIAN/MALE, Target Tissue: Type of Lesion: LUNG: CARCINOMA, Dose [Carcinogen]: 17.8 MG/KG BW 2/WK FOR 20 WK","50%, 33%, 34%, not significant"
same,"tumour outcome (control, treated, inhibition, significance)","Carcinogen: DIETHYLNITROSAMINE, 55-18-5, Dose [Inhibitor]: 0, 300 MG/KG DIET FOR DURATION OF STUDY BEGINNING 1 WK PRIOR TO CARCINOGEN TREATMENT (STUDY DURATION: 25 WK), Species: HAMSTER, Strain/Sex: SYRIAN/MALE, Target Tissue: Type of Lesion: TRACHEA: PAPILLOMA, Dose [Carcinogen]: 17.8 MG/KG BW 2/WK FOR 20 WK","95%, 85%, 11%, not significant"
same,"tumour outcome (control, treated, inhibition, significance)","Carcinogen: DIETHYLNITROSAMINE, 55-18-5, Dose [Inhibitor]: 0, 600 MG/KG DIET FOR DURATION OF STUDY BEGINNING 1 WK PRIOR TO CARCINOGEN TREATMENT (STUDY DURATION: 25 WK), Species: HAMSTER, Strain/Sex: SYRIAN/MALE, Target Tissue: Type of Lesion: LUNG: CARCINOMA, Dose [Carcinogen]: 17.8 MG/KG BW 2/WK FOR 20 WK","60%, 0%, 100%, p<0.0001"
